These results are taken from ChEMBL document CHEMBL1126316, “Non-peptide fibrinogen receptor antagonists. 1. Discovery and design of exosite inhibitors” (J Med Chem, 1992).

The target of test [1] is T1, Integrin alpha-V/beta-3 (Homo sapiens, UniProt P05106+P06756). In words: Inhibition of HUVEC attachment to human fibrinogen.
For test [2], the target named is Integrin alpha-5/beta-1 (Homo sapiens, UniProt P05556+P08648). Description: Inhibition of HUVEC attachment to human fibronectin.
The target in test [3] is T1, Integrin alpha-V/beta-3. In words: Inhibition of HUVEC attachment to human vitronectin.

T1 sequence (P05106 27-788 limits assumed): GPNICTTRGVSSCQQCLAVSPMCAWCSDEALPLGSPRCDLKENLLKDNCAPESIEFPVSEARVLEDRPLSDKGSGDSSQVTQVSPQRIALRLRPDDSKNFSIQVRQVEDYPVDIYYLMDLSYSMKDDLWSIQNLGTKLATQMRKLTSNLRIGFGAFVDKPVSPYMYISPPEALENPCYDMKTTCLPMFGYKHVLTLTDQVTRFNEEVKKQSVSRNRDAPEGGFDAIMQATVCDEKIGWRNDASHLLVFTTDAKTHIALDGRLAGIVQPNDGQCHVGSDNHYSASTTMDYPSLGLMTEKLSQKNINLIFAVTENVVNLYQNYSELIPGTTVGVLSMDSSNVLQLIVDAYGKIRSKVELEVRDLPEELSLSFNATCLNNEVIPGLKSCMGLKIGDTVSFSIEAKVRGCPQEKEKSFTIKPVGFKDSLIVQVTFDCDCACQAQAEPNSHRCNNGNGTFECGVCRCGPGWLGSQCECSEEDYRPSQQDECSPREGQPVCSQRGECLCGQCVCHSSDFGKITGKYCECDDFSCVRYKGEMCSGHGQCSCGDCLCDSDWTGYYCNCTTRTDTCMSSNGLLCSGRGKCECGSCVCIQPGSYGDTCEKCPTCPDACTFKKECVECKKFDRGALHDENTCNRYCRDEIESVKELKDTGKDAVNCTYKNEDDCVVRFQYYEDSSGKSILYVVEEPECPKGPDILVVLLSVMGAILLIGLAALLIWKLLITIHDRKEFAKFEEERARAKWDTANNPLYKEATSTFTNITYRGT
T1 sequence (P06756 31-889 limits assumed): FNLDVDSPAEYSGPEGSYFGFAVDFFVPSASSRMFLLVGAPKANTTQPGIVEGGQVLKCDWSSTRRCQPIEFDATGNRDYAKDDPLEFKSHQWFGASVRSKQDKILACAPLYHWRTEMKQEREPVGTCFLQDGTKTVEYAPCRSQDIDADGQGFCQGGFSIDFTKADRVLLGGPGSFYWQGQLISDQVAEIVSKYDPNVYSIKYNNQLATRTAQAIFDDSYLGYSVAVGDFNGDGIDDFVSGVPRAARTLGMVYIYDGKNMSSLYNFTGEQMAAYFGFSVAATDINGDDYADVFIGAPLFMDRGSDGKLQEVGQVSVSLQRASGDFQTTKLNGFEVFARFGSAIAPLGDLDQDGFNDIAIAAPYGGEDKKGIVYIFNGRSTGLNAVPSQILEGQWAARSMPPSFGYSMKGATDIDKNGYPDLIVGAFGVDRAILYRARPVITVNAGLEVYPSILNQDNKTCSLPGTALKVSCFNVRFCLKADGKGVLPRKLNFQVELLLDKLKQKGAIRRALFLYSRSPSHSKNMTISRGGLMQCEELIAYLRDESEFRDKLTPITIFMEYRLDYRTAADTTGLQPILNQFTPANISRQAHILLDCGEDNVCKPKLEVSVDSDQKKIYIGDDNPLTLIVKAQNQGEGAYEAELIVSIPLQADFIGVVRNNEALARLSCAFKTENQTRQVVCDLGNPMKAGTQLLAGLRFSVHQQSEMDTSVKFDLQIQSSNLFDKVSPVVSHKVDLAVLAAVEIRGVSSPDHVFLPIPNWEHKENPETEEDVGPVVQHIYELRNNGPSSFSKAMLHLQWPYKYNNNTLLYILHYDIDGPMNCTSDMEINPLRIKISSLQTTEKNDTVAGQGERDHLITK
T1 sequence (P06756 891-1048 limits assumed): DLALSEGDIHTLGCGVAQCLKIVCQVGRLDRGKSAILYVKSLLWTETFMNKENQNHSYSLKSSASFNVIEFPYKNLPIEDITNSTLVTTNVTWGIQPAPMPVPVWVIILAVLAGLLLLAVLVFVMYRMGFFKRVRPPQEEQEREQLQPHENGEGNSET
Sequence of Integrin alpha-5/beta-1 (P05556 21-798 limits assumed): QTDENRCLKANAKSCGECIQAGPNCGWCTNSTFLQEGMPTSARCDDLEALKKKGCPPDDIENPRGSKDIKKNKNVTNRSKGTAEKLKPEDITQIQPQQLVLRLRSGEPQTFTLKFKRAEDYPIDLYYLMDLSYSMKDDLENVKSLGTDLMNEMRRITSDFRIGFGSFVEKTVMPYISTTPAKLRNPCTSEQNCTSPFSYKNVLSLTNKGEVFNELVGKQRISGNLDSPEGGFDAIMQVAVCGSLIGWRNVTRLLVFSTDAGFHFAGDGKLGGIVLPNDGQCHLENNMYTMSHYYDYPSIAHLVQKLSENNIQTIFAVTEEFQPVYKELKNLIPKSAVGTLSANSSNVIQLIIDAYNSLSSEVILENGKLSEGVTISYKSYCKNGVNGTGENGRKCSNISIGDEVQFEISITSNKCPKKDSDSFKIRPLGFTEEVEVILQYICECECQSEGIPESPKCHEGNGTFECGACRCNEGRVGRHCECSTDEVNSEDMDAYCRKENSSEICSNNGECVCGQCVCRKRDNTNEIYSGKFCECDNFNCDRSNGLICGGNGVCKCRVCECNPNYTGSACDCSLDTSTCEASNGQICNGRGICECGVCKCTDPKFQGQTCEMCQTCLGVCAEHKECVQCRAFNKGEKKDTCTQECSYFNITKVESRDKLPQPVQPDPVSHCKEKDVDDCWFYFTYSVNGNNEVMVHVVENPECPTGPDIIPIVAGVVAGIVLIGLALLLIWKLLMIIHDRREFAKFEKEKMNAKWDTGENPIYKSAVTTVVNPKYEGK
Sequence of Integrin alpha-5/beta-1 (P08648 42-894 limits assumed): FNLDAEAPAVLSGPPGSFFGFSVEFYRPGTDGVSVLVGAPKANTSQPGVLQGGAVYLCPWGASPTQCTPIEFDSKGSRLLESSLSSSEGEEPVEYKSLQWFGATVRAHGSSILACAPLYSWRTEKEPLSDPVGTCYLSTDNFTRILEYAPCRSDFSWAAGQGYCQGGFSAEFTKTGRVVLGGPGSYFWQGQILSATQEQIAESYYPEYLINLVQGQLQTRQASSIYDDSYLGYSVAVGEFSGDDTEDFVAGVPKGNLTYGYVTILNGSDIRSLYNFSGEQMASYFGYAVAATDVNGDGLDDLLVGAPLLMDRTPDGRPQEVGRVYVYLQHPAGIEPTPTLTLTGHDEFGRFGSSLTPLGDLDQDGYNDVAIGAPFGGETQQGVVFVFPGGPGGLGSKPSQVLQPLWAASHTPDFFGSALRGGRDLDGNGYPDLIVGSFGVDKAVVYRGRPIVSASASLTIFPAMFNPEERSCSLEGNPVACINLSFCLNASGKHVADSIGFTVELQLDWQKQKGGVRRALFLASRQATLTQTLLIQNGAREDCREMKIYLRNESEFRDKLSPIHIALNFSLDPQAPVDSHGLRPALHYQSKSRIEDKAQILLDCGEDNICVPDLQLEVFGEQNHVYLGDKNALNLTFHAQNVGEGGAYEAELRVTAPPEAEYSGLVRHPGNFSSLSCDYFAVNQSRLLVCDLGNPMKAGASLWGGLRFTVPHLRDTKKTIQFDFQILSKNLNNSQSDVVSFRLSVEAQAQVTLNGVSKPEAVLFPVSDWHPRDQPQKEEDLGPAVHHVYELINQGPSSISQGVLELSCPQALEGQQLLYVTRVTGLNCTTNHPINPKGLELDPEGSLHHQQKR
Sequence of Integrin alpha-5/beta-1 (P08648 895-1049 limits assumed): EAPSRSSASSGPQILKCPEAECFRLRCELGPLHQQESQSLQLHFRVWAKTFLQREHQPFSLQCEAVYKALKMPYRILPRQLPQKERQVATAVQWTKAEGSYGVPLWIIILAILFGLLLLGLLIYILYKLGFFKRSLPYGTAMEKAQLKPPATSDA

Regarding `CCCCS(=O)(=O)N[C@@H](Cc1ccc(OCCCCC2CCNCC2)cc1)C(=O)O` [TIROFIBAN], the IC50 in test [1] is 260 µM; in test [2], greater than 300 µM; in test [3], 100 µM.
